Assay results published in patent US20160193316A1 (priority 1994, published 2016).

Tests used:
[1] = molecular target: HLA-A*0101 (Homo sapiens, UniProt P04439, A114D/A174V/A182V/D101N/D185E/E176A/E190D/L180R/Q94H/R68K/S129P/T187R/V100A/V91M/W191G); type: binding
[2] = molecular target: T1, HLA-B*0702 (Homo sapiens, UniProt P01889); assay: HLA class I peptide binding assay; settings: Malaria B07 super motif peptides; binding value, no unit
T1 construct: endogenous in cells; host or cells: GM3107

[3] = molecular target: T2, DRB1*0301 (DR3) (Homo sapiens, UniProt P01903+P01911, A100K/A102G/A103R/A169T/F55Y/I96L/K41T/L162R/M171V/P40S/Q125H/Q178H/Q39Y/R42S/S66N/T106N/T262R/W38E/Y61H); assay: HLA class II peptide binding assay (pH 4.5); settings: for DR3 binding information: DR3a motif peptides, unit not given, exemplary 15-mer containing the core sequence; for DR3 binding data: Table XIXb
T2 construct: endogenous in cells; host or cells: MAT

[4] = molecular target: HLA-A*0201 (Homo sapiens, UniProt P04439, D140Y/D185E/D98H/E176V/E277Q/G131W/G231S/I119V/I121R/I166T/I218V/L300P/L318F/N151K/N90K/P208A/P217A/Q86G/Q94H/R138H/R169H/T345S); assay: HLA class I peptide binding assay; settings: Malaria A02 motif peptides, Table VIII; unit not given
[5] = molecular target: T3, DRB1*0101 (DR1) (Homo sapiens, UniProt P01903+P01911, A100R/D57E/F55L/F60I/F76Y/I96L/L162R/M171V/P40L/Q125E/R42F/V115G/Y59C); assay: HLA class II peptide binding assay; settings: Table XIXb, Malaria Super Motif Peptides With Binding Data; DR1
T3 construct: endogenous in cells; host or cells: LG2
T3 sequence (P01903 26-254 partner, other chains not shown): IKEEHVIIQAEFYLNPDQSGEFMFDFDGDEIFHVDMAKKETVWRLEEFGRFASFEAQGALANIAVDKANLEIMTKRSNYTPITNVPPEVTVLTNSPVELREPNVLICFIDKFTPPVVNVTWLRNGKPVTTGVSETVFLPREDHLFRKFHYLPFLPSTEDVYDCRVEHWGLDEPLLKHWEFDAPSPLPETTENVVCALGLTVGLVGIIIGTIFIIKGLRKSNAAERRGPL

[6] = molecular target: T4, DRB1*0401 (DR4w4) (Homo sapiens, UniProt P01903+P01911, A100K/A169T/F76Y/I96L/K127E/L162R/M171V/N62H/P40V/Q125Y/R42H/S133A/S149N/S66Y/V115G/V209L/W38E); assay: HLA class II peptide binding assay; settings: Table XIXb; DR4w4
T4 construct: endogenous in cells; host or cells: Preiss
T4 sequence (P01903 26-254 partner, other chains not shown): as above

[7] = molecular target: T5, DRB1*0405 (DR4w15) (Homo sapiens, UniProt P01903+P01911, A100R/A169T/D86S/F76Y/I96L/K127E/L162R/M171V/N62H/P40V/Q125Y/R42H/S133A/S149N/S66Y/V115G/V209L/W38E); assay: HLA class II peptide binding assay; settings: Table XIXb; DR4w15
T5 construct: endogenous in cells; host or cells: KT3

[8] = molecular target: T6, DRB1*0701 (DR7) (Homo sapiens, UniProt P01903+P01911, A100R/A102G/A103Q/D57E/D86V/E43K/F76Y/K127E/L162R/M171V/P40G/Q125H/Q99D/R33Q/R42Y/R54Q/S133A/S66F/T210M/V115G/Y107V/Y59L/Y89S); assay: biochemical; type: binding
T6 construct: endogenous in cells; host or cells: Pitout

[9] = molecular target: T7, DRB1*0802 (DR8w2) (Homo sapiens, UniProt P01903+P01911, A100R/A103L/A169T/F76Y/H45Y/I96F/K41T/L162R/M171V/P40S/Q125H/Q178H/Q39Y/Q99D/R218S/R42G/S66Y/V115G/W38E); assay: biochemical; type: binding
T7 construct: endogenous in cells; host or cells: OLL

[10] = molecular target: T8, DRB1*0901 (DR9) (Homo sapiens, UniProt P01903+P01911, A100R/A103E/D57H/D86V/F55Y/F60I/F76Y/I96F/K127E/L162R/M171V/P40D/Q125H/Q99R/R33Q/R42F/S133A/S66N/T210M/V115G/W38K/Y107V/Y59G/Y89S); assay: biochemical; type: binding
T8 construct: endogenous in cells; host or cells: HID

[11] = molecular target: T9, DRB1*1101 (DR5w11) (Homo sapiens, UniProt P01903+P01911, A100R/A169T/A87E/I96F/K41T/L162R/M171V/P40S/Q125H/Q178H/Q39Y/Q99D/R42S/S66Y/T262R/V115G/W38E); assay: biochemical; type: binding
T9 construct: endogenous in cells; host or cells: Sweig
T9 sequence (P01903 26-254, other chains not shown): as the sequence (P01903 26-254 partner, other chains not shown) above

[12] = molecular target: T10, DRB1*1201 (DR5w12) (Homo sapiens, UniProt P01903+P01911, A100R/A169T/D57E/D86V/F55L/H45Y/K41T/L162R/M171V/P40S/Q125H/Q178H/Q39Y/Q99D/R42G/S66L/T262R/V114A/V67L/W38E/Y59H/Y61H/Y89S); assay: HLA class II peptide binding assay; settings: Table XIXb; DR5w12
T10 construct: endogenous in cells; host or cells: Herluf

[13] = molecular target: T11, DRB1*1302 (DR6w19) (Homo sapiens, UniProt P01903+P01911, A100E/A169T/K41T/L162R/M171V/P40S/Q125H/Q178H/Q39Y/Q99D/R42S/S66N/T262R/V115G/W38E/Y61H); assay: HLA class II peptide binding assay; settings: Table XIXb; DR6w19
T11 construct: endogenous in cells; host or cells: H0301
T11 sequence (P01903 26-254, other chains not shown): as the sequence (P01903 26-254 partner, other chains not shown) above

[14] = molecular target: T12, DRB1*1501 (DR2w2β1) (Homo sapiens, UniProt P01903+P01911); assay: HLA class II peptide binding assay; settings: Table XIXb; DR2w2β1
T12 construct: expressed in transfected cells; host or cells: L466.1 (fibroblasts)

[15] = molecular target: T13, DRB4*0101 (DRw53) (Homo sapiens, UniProt P01903+P13762, G164S); assay: HLA class II peptide binding assay (pH 5.0); settings: Table XIXb; DRw53
T13 construct: expressed in transfected cells; host or cells: L257.6 (fibroblasts)

[16] = molecular target: T14, DRB5*0101 (DR2w2β2) (Homo sapiens, UniProt P01903+Q30154); type: binding
T14 construct: expressed in transfected cells; host or cells: L416.3 (fibroblasts) or GM3107

[17] = molecular target: T15, HLA-A*0301 (Homo sapiens, UniProt P04439); assay: HLA class I peptide binding assay; settings: Malaria A3 motif peptides, Table XVI; binding value to HLA-A*0301, unit not given
T15 construct: endogenous in cells; host or cells: GM3107

[18] = molecular target: HLA-A*1101 (Homo sapiens, UniProt P04439, A114D/D185E/E176A/F33Y/L180Q/S129P/T187R); assay: HLA class I peptide binding assay; settings: Table XVII, malaria A11 motif peptides; binding value unit not given
[19] = molecular target: HLA-A*2402 (Homo sapiens, UniProt P04439, D101N/D140Y/D185E/E176V/E190D/F33S/G103R/G107R/I119L/I121M/I306V/K335N/L105A/L180Q/L300P/N151K/N90K/Q86E/Q94H/R106L/R138H/R89G/T104I/T345S/V100E/W191G/Y123F); assay: HLA class I peptide binding assay
[20] = tested on: T helper lymphocytes; settings: regardless of HLA type, WO 95/07707; cited from earlier work

Substance: LPSENERGY
- A*0101 (binding information) [1]: 0.6700
- B*0702 (binding information) [2]: 0,0001
- DR3 binding information [3]: -0.0033

Substance: LTMSNVKNV
- A*0201 (binding information) [4]: 0.0010
- DR1 binding data [5]: 0.0018
- DR3 binding data [3]: 0.0058
- DR4w4 binding data [6]: 0.0023
- DR4w15 binding data [7]: 0.0074
- DR7 binding data [8]: 0.0410
- DR8w2 binding data [9]: 0.0110
- DR9 binding data [10]: 0.0710
- DR5w11 binding data [11]: 0.0030
- DR5w12 binding data [12]: 0.0001
- DR6w19 binding data [13]: 0.0430
- DR2w2β1 binding data [14]: 0.0003
- DRw53 binding data [15]: 0.0024
- DR2w2β2 binding data [16]: 0.0009

Substance: MPNDPNRNV
- B*0702 (binding information) [2]: 0.0001
- DR3 binding information [3]: -0.0033

Substance: PSDGKCNLY
- A*010I [1]: 0.5400
- A*0101 (binding information) [1]: 0.5400
- A*0301 (binding information) [17]: 0.0002
- A*1101 binding information [18]: 0.0002

Substance: PYAQEPAPF
- HLA-A24 binding value ([19]; Table X, Malaria A24 Super Motif Peptides With Binding Information, unit not given): 0.0370

Substance: TPYAGEPAPF
- B*0702 (binding information) [2]: 0.0990

Substance: VPGAAIPYA
- B*0702 (binding information) [2]: 0.0001

Substance: WVNHAVPLA
- A*0201 (binding information) [4]: 0.0008
- DR1 binding data [5]: 0.1900
- DR3 binding data [3]: 0.4000
- DR4w4 binding data [6]: 5.0000
- DR4w15 binding data [7]: 0.0360
- DR7 binding data [8]: 0.4400
- DR8w2 binding data [9]: 1.8000
- DR9 binding data [10]: 4.6000
- DR5w11 binding data [11]: 0.0079
- DR5w12 binding data [12]: 0.0240
- DR6w19 binding data [13]: 0.8900
- DR2w2β1 binding data [14]: 0.0350
- DRw53 binding data [15]: 0.0430
- DR2w2β2 binding data [16]: 0.1600

Substance: YYIPHQSSL
- A*201 (binding information) [19]: 4.3000
- A*2401 (binding information, Malaria A24 motif peptides) [19]: 4.3000

Substance: aKXVWANTLKAAa
- Stimulation of T helper lymphocyte response [20]: stimulate the response of T helper lymphocytes from most individuals
